# Measured values published in ChEMBL document CHEMBL5465560, “Selectivity Literature for EUbOPEN Chemogenomic Library” (2024).
# Experiments:
# [1] = biological target: Serine/threonine-protein kinase pim-3 (Homo sapiens) (UniProt Q86V86); details: at 10 µM
# [2] = biological target: Serine/threonine-protein kinase RIO2 (Homo sapiens) (UniProt Q9BVS4); assay: Selectivity interaction (KinomeScan (DiscoverX)) EUB0001079a RIOK2; details: at 1 µM
# [3] = biological target: Serine/threonine-protein kinase PLK3 (Homo sapiens, UniProt Q9H4B4); assay: Selectivity interaction (KinomeScan (DiscoverX)) EUB0001079a PLK3; details: at 1 µM
# [4] = biological target: T1, Ephrin type-B receptor 4 (Homo sapiens) (UniProt P54760); assay: Selectivity interaction (KinomeScan (DiscoverX)) EUB0001079a EPHB4; details: at 1 µM
# T1 sequence (whole entry): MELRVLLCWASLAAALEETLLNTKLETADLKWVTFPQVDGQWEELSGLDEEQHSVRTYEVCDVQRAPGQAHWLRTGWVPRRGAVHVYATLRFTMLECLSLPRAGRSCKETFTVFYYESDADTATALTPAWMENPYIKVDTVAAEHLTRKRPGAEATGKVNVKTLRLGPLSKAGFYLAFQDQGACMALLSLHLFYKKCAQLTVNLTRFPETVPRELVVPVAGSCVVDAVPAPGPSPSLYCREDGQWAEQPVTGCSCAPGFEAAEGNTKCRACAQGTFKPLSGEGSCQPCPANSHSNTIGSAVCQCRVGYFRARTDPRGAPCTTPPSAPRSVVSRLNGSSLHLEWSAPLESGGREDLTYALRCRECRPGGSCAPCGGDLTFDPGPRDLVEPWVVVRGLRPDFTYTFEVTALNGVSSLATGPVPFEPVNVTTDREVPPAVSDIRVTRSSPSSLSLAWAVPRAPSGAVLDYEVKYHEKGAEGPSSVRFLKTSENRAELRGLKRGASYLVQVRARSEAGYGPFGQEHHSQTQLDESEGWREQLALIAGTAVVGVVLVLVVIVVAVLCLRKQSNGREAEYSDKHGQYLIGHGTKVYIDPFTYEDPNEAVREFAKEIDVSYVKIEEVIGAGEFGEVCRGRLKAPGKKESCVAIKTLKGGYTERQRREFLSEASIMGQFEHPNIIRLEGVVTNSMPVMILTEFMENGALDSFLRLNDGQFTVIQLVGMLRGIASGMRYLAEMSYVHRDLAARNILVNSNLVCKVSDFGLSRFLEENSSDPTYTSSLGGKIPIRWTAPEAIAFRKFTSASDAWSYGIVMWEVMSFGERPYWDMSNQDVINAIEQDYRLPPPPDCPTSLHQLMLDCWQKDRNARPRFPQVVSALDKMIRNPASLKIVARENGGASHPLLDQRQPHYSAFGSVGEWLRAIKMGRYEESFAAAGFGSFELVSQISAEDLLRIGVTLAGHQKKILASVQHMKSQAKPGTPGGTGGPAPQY
# [5] = biological target: Serine/threonine-protein kinase pim-2 (Homo sapiens, UniProt Q9P1W9); assay: Selectivity interaction (KinomeScan (DiscoverX)) EUB0000655a PIM2; details: at 10 µM
# [6] = biological target: Serine/threonine-protein kinase PLK1 (Homo sapiens, UniProt P53350); assay: Selectivity interaction (KinomeScan (DiscoverX)) EUB0001619a PLK1; details: at 1 µM
# [7] = biological target: Cyclin-dependent kinase 16 (Homo sapiens) (UniProt Q00536); assay: Selectivity interaction (ActivX KiNativ screen (ex vivo kinase selectivity in human PBMCs)) EUB0001619a CDK16; type: cell-based; details: PBMC, at 1 µM
# [8] = biological target: T2, Histone-lysine N-methyltransferase NSD3 (Homo sapiens) (UniProt Q9BZ95); assay: Selectivity interaction (Methyltransferase screen (Scintillation proximity assays)) EUB0000255b NSD3
# T2 sequence (whole entry): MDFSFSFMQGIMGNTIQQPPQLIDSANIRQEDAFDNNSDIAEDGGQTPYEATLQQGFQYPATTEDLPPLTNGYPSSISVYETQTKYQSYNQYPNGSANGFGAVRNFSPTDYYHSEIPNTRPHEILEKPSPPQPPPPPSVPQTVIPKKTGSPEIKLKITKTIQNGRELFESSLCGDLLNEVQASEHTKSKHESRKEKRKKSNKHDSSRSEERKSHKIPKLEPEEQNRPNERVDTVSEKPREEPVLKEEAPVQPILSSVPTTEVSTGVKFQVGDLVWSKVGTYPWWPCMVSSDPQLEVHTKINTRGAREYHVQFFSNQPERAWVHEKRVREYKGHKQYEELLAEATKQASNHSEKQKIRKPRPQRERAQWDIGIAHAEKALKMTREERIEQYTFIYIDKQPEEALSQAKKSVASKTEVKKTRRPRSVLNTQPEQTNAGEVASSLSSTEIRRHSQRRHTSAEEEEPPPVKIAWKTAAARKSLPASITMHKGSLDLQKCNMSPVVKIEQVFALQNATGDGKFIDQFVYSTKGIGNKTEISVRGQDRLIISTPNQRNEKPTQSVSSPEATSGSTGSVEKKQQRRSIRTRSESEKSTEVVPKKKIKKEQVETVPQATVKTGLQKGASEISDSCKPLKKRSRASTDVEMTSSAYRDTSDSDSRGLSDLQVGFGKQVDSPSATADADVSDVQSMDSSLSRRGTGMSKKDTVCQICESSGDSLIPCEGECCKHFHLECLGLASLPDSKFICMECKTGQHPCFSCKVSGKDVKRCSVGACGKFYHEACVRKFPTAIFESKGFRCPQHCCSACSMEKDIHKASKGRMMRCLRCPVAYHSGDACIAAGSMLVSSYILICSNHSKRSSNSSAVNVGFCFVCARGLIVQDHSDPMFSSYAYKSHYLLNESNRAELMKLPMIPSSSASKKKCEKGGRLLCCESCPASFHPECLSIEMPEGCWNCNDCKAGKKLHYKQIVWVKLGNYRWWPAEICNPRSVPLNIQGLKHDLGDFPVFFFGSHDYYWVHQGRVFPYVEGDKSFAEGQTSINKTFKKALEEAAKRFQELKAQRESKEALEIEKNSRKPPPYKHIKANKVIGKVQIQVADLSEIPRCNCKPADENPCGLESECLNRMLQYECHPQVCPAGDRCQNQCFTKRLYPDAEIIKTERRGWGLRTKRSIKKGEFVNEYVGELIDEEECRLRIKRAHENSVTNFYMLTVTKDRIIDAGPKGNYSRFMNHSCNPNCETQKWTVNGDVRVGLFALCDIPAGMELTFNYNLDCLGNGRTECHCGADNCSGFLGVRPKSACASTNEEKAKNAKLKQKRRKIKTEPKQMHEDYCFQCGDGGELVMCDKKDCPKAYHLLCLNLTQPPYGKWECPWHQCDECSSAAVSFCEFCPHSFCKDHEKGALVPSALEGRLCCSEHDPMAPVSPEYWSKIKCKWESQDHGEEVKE
# Sequence of Serine/threonine-protein kinase PLK1 (P53350 whole entry): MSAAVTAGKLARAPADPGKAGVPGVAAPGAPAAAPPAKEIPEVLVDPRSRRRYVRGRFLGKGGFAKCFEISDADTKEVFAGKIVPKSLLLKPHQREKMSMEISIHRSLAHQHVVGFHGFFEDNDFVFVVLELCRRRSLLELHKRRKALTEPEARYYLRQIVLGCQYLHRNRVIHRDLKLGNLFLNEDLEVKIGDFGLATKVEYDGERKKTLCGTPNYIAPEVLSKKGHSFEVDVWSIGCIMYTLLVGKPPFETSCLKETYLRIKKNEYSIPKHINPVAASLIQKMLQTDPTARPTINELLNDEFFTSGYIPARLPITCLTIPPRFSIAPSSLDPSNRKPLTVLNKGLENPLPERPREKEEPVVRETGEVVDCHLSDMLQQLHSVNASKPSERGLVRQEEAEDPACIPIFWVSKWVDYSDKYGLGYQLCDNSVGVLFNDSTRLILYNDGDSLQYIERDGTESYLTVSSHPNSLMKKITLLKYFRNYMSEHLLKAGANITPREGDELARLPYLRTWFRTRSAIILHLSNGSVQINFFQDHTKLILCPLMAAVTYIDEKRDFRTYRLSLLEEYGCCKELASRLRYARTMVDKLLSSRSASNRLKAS
# Sequence of Serine/threonine-protein kinase PLK3 (Q9H4B4 whole entry, looked up): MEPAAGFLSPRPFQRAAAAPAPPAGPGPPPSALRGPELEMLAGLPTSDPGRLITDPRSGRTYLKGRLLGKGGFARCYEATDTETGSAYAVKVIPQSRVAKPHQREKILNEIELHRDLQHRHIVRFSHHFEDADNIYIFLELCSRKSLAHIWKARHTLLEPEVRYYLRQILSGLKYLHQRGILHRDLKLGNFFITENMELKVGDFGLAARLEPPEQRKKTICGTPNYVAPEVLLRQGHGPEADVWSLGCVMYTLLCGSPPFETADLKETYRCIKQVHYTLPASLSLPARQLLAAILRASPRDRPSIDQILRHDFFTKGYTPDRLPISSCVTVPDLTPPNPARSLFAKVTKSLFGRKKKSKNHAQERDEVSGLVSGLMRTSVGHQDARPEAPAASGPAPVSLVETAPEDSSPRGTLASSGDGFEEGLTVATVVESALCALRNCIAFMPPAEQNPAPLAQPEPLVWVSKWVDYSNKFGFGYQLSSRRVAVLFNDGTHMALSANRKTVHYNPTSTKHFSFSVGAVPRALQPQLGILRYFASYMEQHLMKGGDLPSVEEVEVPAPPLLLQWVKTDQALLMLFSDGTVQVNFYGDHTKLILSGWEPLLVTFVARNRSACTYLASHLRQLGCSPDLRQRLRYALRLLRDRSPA
# Sequence of Serine/threonine-protein kinase RIO2 (Homo sapiens) (Q9BVS4 whole entry, looked up): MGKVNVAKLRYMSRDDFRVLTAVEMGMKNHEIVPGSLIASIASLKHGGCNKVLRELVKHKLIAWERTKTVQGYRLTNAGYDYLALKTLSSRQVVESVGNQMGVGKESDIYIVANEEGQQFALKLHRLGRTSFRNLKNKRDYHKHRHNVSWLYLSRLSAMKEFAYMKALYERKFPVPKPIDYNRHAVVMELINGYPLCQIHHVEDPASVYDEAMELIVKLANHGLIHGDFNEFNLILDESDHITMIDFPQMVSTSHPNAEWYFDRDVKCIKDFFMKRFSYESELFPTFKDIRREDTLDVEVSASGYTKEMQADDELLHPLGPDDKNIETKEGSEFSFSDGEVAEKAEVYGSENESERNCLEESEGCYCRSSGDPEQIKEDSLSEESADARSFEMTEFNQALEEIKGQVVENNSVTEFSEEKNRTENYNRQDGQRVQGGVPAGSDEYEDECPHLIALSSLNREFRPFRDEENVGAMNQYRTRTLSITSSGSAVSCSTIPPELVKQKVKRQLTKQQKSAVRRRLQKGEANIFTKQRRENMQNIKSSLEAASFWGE
# Sequence of Cyclin-dependent kinase 16 (Homo sapiens) (Q00536 whole entry): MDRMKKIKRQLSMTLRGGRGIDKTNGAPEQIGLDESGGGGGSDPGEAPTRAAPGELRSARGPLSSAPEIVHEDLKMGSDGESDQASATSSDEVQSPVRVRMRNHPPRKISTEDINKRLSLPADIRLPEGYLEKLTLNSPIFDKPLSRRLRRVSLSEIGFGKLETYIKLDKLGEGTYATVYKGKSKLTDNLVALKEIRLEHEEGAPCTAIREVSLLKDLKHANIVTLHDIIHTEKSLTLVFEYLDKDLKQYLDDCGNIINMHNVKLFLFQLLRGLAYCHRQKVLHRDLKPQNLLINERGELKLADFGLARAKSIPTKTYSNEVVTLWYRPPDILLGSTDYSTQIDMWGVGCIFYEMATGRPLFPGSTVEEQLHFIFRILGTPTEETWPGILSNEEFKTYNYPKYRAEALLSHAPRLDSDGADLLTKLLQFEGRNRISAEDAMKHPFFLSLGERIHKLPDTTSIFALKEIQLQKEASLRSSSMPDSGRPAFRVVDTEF
# Sequence of Serine/threonine-protein kinase pim-2 (Q9P1W9 whole entry, looked up): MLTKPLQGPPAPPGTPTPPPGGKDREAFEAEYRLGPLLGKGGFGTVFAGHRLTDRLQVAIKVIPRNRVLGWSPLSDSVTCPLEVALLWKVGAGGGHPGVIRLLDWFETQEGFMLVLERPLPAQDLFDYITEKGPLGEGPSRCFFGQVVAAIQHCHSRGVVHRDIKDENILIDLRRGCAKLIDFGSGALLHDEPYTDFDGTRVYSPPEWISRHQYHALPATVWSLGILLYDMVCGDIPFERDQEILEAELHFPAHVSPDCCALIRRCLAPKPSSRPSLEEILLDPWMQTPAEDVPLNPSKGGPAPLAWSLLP
compound,measurement,setting,value
Cc1cc([C@@H](C)Nc2ccccc2C(=O)O)c2nc(N3CCOCC3)cc(=O)n2c1 [AZD-6482],% of control,[1],100%
Nc1cnc(N2CCc3cc(S(=O)(=O)Nc4c(F)cc(Cl)cc4F)cc(N4CCCC4=O)c32)nc1 [TP-020n],% of control,[2],89%
same,% of control,[3],100%
same,% of control,[4],100%
CN(C)CCOc1ccc(-c2nc(-c3ccncc3)c(-c3ccc4c(c3)CC/C4=N\O)[nH]2)cc1,% of control,[5],78%
N#Cc1cccc(-c2c[nH]c3ncnc(N4CCOCC4)c23)c1,% of control,[6],100%
same,% of inhibition,[7],25%
COCCN1CCC(c2cc(CN(C)C(=O)c3cccc(Oc4ccccc4)c3)ccn2)CC1,% activity,[8]; at 1 µM,> 95%
same,% activity,[8]; at 10 µM,> 90%
